Measured values: US20110269811A1, “INHIBITORS OF SEMICARBAZIDE-SENSITIVE AMINE OXIDASE (SSAO) AND VAP-1 MEDIATED ADHESION USEFUL FOR TREATMENT AND PREVENTION OF DISEASES” (priority 2006, published 2011)
Where a name gives a salt, the structure may show the parent alone.

Tested on: not given
Experiment: not given
Conditions: not given

`NC/C(=C\F)Cc1cccc(Cl)c1` (as salt: hydrochloride) and `NCC(=CF)Cc1cccc(O)c1` (as salt: citrate) fall in the same range of melting point: 145 to 146 °C for the first, 145 to 146 °C for the second.

First: Cc1cc(C/C(=C/F)CN)ccc1F (as salt: hydrochloride)
Second: Cc1ccc(C/C(=C/F)CN)cc1F (as salt: hydrochloride)
The melting point of the first is lower: 158 to 159 °C for the first, 160 to 161 °C for the second.

First: NC/C(=C/Cl)CCc1ccc(C(F)(F)F)cc1 (as salt: hydrochloride)
Second: NC/C(=C/Cl)CCc1ccc(Cl)cc1.O=C(O)C(F)(F)F [Compound I-43-Z, (E)-3-Chloro-2-(4-chlorophenylethyl)allylamine trifluoroacetate]
The melting point of the first is higher: 89 to 90 °C for the first, 68 to 70 °C for the second.

Compared with `NC/C(=C\F)CCc1cccc(F)c1.O=C(O)C(F)(F)F`, `NC/C(=C/F)CCc1cccc(F)c1.O=C(O)C(F)(F)F` is higher in melting point: 47 to 48 °C for the first, 72 to 73 °C for the second.

First: NC/C(=C\F)Cc1cc(Cl)cc(Cl)c1 (as salt: hydrochloride)
Second: NC/C(=C\F)Cc1cc(F)cc(Cl)c1 (as salt: hydrochloride)
The melting point of the first is higher: 184 to 185 °C for the first, 158 to 159 °C for the second.

First: COc1ccc(C/C(=C\F)CN)cc1OC.Cl
Second: COc1ccc(C/C(=C/F)CN)cc1OC.Cl
The melting point of the first is lower: 204 to 205 °C for the first, 220 to 221 °C for the second.

First: NC/C(=C\F)Cc1ccc(F)c(F)c1 (as salt: hydrochloride)
Second: NC/C(=C\F)Cc1ccc(F)c(Cl)c1 (as salt: hydrochloride) [Compound I-23, (Z)-3-Fluoro-2-(3-chloro-4-fluorobenzyl)allylamine hydrochloride]
The melting point of the first is lower: 141 to 142 °C for the first, 163 to 164 °C for the second.

First: NC/C(=C\F)Cc1ccc(F)cc1 (as salt: hydrochloride)
Second: Cc1ccc(C/C(=C/F)CN)cc1 (as salt: hydrochloride)
The melting point of the first is lower: 139 to 140 °C for the first, 150 to 151 °C for the second.

First: Cc1cccc(CC/C(=C/Cl)CN)c1 (as salt: hydrochloride) [Compound I-37, (Z)-3-Chloro-2-(3-methylphenylethyl)allylamine hydrochloride]
Second: Cc1cccc(CC/C(=C\Cl)CN)c1.Cl [Compound I-48-E, (E)-3-Chloro-2-(3-methylphenylethyl)allylamine hydrochloride]
The melting point of the first is higher: 102 to 103 °C for the first, 95 to 97 °C for the second.

Compared with `Cl.NC/C(F)=C\Cc1cc(C(F)(F)F)cc(C(F)(F)F)c1` [II-12-E, (E)-2-Fluoro-4-(3,5-ditrifluoromethylphenyl)-2-butenylamine hydrochloride], `NC/C(F)=C\Cc1cccc(C(F)(F)F)c1` (as salt: hydrochloride) [II-2, (E)-2-Fluoro-4-(3-trifluoromethylphenyl)-2-butenylamine hydrochloride] is lower in melting point: 197 to 198 °C for the first, 145 to 147 °C for the second.

First: COc1cccc(C(C)/C=C(/F)CN)c1.Cl (centres unmarked) [II-18-E]
Second: COc1cccc(CC/C=C(/F)CN)c1.Cl
The melting point of the first is higher: 133 to 134 °C for the first, 112 to 113 °C for the second.

First: COCc1cccc(C/C=C(/F)CN)c1 (as salt: hydrochloride)
Second: COc1ccccc1C/C=C(/F)CN.Cl [II-17-E, (E)-2-Fluoro-4-(2-methoxyphenyl)-2-butenylamine hydrochloride]
The melting point of the first is higher: 165 to 166 °C for the first, 133 to 134 °C for the second.

Compared with `NC/C(=C\Cl)CCc1ccc(Cl)cc1` (as salt: trifluoroacetate), `NC/C(=C\Cl)CCc1ccc(F)cc1` (as salt: trifluoroacetate) is lower in melting point: 89 to 90 °C for the first, 69 to 70 °C for the second.

First: COc1cccc(CC/C(=C\Cl)CN)c1.Cl [Compound I-49-E, (E)-3-Chloro-2-(3-methoxyphenylethyl)allylamine hydrochloride]
Second: COc1cccc(CC/C(=C/Cl)CN)c1 (as salt: hydrochloride) [Compound I-38, (Z)-3-Chloro-2-(3-methoxyphenylethyl)allylamine hydrochloride]
The melting point of the first is lower: 85 to 87 °C for the first, 139 to 140 °C for the second.

First: CCOc1ccc(CC/C(=C/Cl)CN)cc1 (as salt: hydrochloride) [Compound I-34, (Z)-3-Chloro-2-(4-ethoxyphenylethyl)allylamine hydrochloride]
Second: CCCCOc1ccc(CC/C(=C/Cl)CN)cc1 (as salt: hydrochloride) [Compound I-36, (Z)-3-Chloro-2-(4-n-butoxyphenylethyl)allylamine hydrochloride]
The melting point of the first is higher: 160 to 162 °C for the first, 133 to 134 °C for the second.

Compared with `NC/C(=C\F)Cc1ccc(F)cc1F` (as salt: hydrochloride), `NC/C(=C\F)Cc1cc(F)ccc1F` (as salt: hydrochloride) [Compound I-24, (Z)-3-Fluoro-2-(2,5-difluorobenzyl)allylamine hydrochloride] is lower in melting point: 130 to 131 °C for the first, 105 to 106 °C for the second.

First: NC/C(=C/Cl)CCc1ccc(F)cc1.O=C(O)C(F)(F)F [Compound I-42-Z, (E)-3-Chloro-2-(4-fluorophenylethyl)allylamine trifluoroacetate]
Second: Cc1ccc(CC/C(=C\Cl)CN)cc1.Cl [Compound I-50-E, (E)-3-Chloro-2-(4-methylphenylethyl)allylamine hydrochloride]
The melting point of the first is lower: 52 to 53 °C for the first, 124 to 125 °C for the second.

First: NC/C(=C\F)Cc1ccc(-c2ccccc2)cc1 (as salt: hydrochloride)
Second: CS(=O)(=O)c1ccc(C/C(=C/F)CN)cc1 (as salt: trifluoroacetate)
The melting point of the first is higher: 219 to 220 °C for the first, 49 to 50 °C for the second.

Compared with `CSc1cccc(C/C(=C/F)CN)c1` (as salt: hydrochloride), `Cc1cccc(C/C(=C/F)CN)c1` (as salt: hydrochloride) [Compound I-13, (Z)-3-Fluoro-2-(3-methylbenzyl)allylamine hydrochloride] is lower in melting point: 145 to 146 °C for the first, 118 to 119 °C for the second.

First: NC/C(=C\F)Cc1cccc(C(F)(F)F)c1 (as salt: hydrochloride)
Second: Cl.NC/C(=C/Cl)CCc1cc(F)cc(C(F)(F)F)c1 [Compound I-51-E, (E)-3-Chloro-2-(3-fluoro-5-trifluoromethylphenylethyl)allylamine hydrochloride]
The melting point of the first is higher: 161 to 162 °C for the first, 96 to 97 °C for the second.

First: COc1cc(C/C(=C/F)CN)cc(OC)c1 (as salt: hydrochloride)
Second: COc1ccc(CC/C(=C/Cl)CN)cc1 (as salt: hydrochloride) [Compound I-33, (Z)-3-Chloro-2-(4-methoxyphenylethyl)allylamine hydrochloride]
The melting point of the first is higher: 194 to 195 °C for the first, 123 to 124 °C for the second.

First: NC/C(=C/F)CCc1cc(F)cc(C(F)(F)F)c1.O=C(O)C(F)(F)F
Second: NC/C(=C/Cl)CCc1ccccc1 (as salt: hydrochloride)
The melting point of the first is lower: 58 to 59 °C for the first, 97 to 98 °C for the second.

With `COc1ccc(C/C(=C/F)CN)cc1F` (as salt: hydrochloride) [Compound I-21, (Z)-3-Fluoro-2-(3-fluoro-4-methoxybenzyl)allylamine hydrochloride] the melting point was 170 °C (dec.).
For `Cc1ccc(CC/C(=C/Cl)CN)cc1.Cl` [Compound I-39-Z, (Z)-3-Chloro-2-(4-methylphenylethyl)allylamine hydrochloride], the melting point was 135 °C (dec.).

Target: T1, Human SSAO (Homo sapiens, UniProt Q16853)
T1 construct: rat lung or human umbilical cord homogenates were prepared by chopping the freshly removed tissue; from tissue; host or cells: human umbilical cord homogenate (25,000 g supernatant)
T1 sequence (Q16853 1-763): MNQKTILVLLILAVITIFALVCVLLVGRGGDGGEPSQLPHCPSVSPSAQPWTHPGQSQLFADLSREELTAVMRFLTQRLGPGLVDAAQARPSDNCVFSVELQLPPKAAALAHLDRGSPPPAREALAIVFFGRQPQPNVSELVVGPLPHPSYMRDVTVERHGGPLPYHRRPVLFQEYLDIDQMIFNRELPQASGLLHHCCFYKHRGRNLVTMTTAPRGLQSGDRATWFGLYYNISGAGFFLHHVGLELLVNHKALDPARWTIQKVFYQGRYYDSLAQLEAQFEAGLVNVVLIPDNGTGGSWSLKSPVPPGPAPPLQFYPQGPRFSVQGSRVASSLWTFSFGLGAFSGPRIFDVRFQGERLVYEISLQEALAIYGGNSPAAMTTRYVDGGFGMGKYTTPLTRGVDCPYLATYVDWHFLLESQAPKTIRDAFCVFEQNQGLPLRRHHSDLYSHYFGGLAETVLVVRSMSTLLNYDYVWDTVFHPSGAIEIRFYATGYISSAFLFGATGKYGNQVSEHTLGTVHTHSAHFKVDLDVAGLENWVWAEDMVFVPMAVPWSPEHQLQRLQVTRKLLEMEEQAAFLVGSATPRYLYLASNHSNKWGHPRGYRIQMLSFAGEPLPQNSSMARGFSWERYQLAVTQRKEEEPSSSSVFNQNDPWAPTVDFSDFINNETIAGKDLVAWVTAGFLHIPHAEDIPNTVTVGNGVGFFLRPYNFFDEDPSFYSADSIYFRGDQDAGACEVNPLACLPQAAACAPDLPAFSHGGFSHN
Experiment: In vitro inhibition of SSAO activity, human umbilical cord homogenate, 14C-benzylamine
Assay type: biochemical
Parameters: Human SSAO, percent at given concentration: unit of the concentration uncertain
Conditions: @7 (unit uncertain)
Procedure: SSAO activity was measured as described (Lizcano J M. Et al. (1998) Biochem J. 331:69). Briefly, rat lung or human umbilical cord homogenates were prepared by chopping the freshly removed tissue into small pieces and washing them thoroughly in PBS. The tissue was then homogenized 1:10 (w/v) for lung or 1:5 (w/v) for umbilical cord, in 10 mM potassium phosphate buffer (pH 7.8). Homogenates were then centrifuged at 1000 g at 4° C. for 10 min (lung) or 25,000 g for 30 min (umbilical cord); the supernatants were kept frozen until ready to use. Lung or umbilical cord homogenate was preincubated with clorgyline and pargyline at 1 μM to inhibit MAO-A and -B activity, respectively, and SSAO inhibitors were generally present at 1 nM-10 μM. The reaction was initiated by addition of 20 μM ^14C— benzylamine as substrate. The reaction was carried out at 37° C. in a final volume of 400 μL of 100 mM potassium phosphate buffer (pH 7.2) and stopped with 100 μl of 2M citric acid. Radioactively labeled products were extracted into toluene/ethyl acetate (1:1, v/v) containing 0.6% (w/v) 2,5-diphenyloxazole (PPO) before liquid scintillation counting.

In the case of `Cl.NC/C(F)=C\Cc1cc(C(F)(F)F)cc(C(F)(F)F)c1` [II-12-E, (E)-2-Fluoro-4-(3,5-ditrifluoromethylphenyl)-2-butenylamine hydrochloride], the “Human SSAO, percent at given concentration” value (“Human SSAO, percent” for short) is reported as 55%@7 mM.

Same assay, conditions: @8 (unit uncertain)

Going from `NCC(=O)CCc1ccc(F)cc1` [IV-1, 1-amino-4-(4-fluorophenyl)butan-2-one] to `NC/C(=C/Cl)CCc1ccc(F)cc1.O=C(O)C(F)(F)F` [Compound I-42-Z, (E)-3-Chloro-2-(4-fluorophenylethyl)allylamine trifluoroacetate], the “Human SSAO, percent” value rises from 45%@8 mM to 73%@8 mM.

Same assay, conditions: @40 (unit uncertain)

In the case of `Cl.NC/C(=C/Cl)CCc1cc(F)cc(C(F)(F)F)c1` [Compound I-51-E, (E)-3-Chloro-2-(3-fluoro-5-trifluoromethylphenylethyl)allylamine hydrochloride], the “Human SSAO, percent” value is reported as 33%@40 mM.

Same assay, conditions: human umbilical cord homogenate; read-out: Human SSAO IC50

`NC/C(=C/Cl)CCc1ccc(Cl)cc1.O=C(O)C(F)(F)F` [Compound I-43-Z, (E)-3-Chloro-2-(4-chlorophenylethyl)allylamine trifluoroacetate] and `Cc1ccc(CC/C(=C/Cl)CN)cc1.Cl` [Compound I-39-Z, (Z)-3-Chloro-2-(4-methylphenylethyl)allylamine hydrochloride] are within 1.5-fold of each other in IC50: 1.4 µM for the first, 1.2 µM for the second.

`COc1ccc(CCC(=O)CN)cc1` [IV-3, 1-amino-4-(4-methoxyphenyl)butan-2-one] and `COc1cccc(CCC(=O)CN)c1` [IV-8, 1-amino-4-(3-methoxyphenyl)butan-2-one] are within 1.5-fold of each other in IC50: 3 µM for the first, 3.7 µM for the second.

First: COc1cccc(CC/C(=C\Cl)CN)c1.Cl [Compound I-49-E, (E)-3-Chloro-2-(3-methoxyphenylethyl)allylamine hydrochloride]
Second: Cc1cccc(CC/C(=C\Cl)CN)c1.Cl [Compound I-48-E, (E)-3-Chloro-2-(3-methylphenylethyl)allylamine hydrochloride]
The IC50 of the first is 1.8-fold lower: 5.5 µM for the first, 10 µM for the second. The first is the more potent here.

First: COc1ccccc1C/C=C(/F)CN.Cl [II-17-E, (E)-2-Fluoro-4-(2-methoxyphenyl)-2-butenylamine hydrochloride]
Second: Cc1ccc(CC/C(=C\Cl)CN)cc1.Cl [Compound I-50-E, (E)-3-Chloro-2-(4-methylphenylethyl)allylamine hydrochloride]
The IC50 of the first is 4.5-fold higher: 4.5 µM for the first, 1 µM for the second.

In the case of `NCC(=O)CCc1cc(F)cc(C(F)(F)F)c1` [IV-10, 1-amino-4-(3-fluoro-5-(trifluoromethyl)phenyl)butan-2-one], the IC50 is reported as 1.5 µM.
